# Assay results: paper PMC6199744, “Development of Chemical Proteomics for the Folateome and Analysis of the Kinetoplastid Folateome” (ACS Infectious Diseases, 2018)
# Assays:
# Type in all cases: binding
# [1] = target: T1, HeLa cell extract proteins (Homo sapiens, UniProt P63208); conditions: captured protein SKP1; HeLa
# T1 construct: endogenous in cells; host or cells: HeLa cell extract
# [2] = target: T2, HeLa cell extract proteins (Homo sapiens, UniProt P23396); conditions: captured protein RPS3; HeLa
# T2 construct: endogenous in cells; host or cells: HeLa cell extract
# [3] = target: T3, HeLa cell extract proteins (Homo sapiens, UniProt Q9Y6E2); conditions: protein BZW2; HeLa
# T3 construct: endogenous in cells; host or cells: HeLa cell extract
# T3 sequence (Q9Y6E2 1-419): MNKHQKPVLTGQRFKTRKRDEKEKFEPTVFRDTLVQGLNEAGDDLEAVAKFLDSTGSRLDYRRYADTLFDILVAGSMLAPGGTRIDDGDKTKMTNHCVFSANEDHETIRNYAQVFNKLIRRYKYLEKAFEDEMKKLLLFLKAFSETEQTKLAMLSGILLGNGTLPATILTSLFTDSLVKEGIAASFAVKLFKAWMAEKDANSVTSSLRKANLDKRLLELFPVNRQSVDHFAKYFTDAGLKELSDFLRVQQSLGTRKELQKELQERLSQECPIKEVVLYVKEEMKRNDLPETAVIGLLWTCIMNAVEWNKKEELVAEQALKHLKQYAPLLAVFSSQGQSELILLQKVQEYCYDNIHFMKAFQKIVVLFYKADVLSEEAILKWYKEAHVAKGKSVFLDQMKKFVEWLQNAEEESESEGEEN
# [4] = target: T4, HeLa cell extract proteins (Homo sapiens, UniProt P06703); conditions: protein S100A6; HeLa
# T4 construct: endogenous in cells; host or cells: HeLa cell extract
# [5] = target: T5, HeLa cell extract proteins (Homo sapiens, UniProt Q9Y3F4); conditions: protein STRAP; HeLa
# T5 construct: endogenous in cells; host or cells: HeLa cell extract
# T5 sequence (Q9Y3F4 1-350): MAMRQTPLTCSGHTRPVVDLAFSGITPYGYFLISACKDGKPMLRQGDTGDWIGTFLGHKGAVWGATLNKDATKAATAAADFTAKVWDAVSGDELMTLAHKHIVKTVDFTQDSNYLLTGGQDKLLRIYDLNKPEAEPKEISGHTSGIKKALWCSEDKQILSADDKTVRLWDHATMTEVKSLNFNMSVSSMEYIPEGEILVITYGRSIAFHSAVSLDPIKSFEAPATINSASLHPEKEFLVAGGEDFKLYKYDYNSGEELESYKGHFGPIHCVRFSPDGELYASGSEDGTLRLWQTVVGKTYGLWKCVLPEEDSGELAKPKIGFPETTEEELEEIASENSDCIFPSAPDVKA
# [6] = target: T6, HeLa cell extract proteins (Homo sapiens, UniProt Q7Z3U7); conditions: HeLa; protein MON2
# T6 construct: endogenous in cells; host or cells: HeLa cell extract
# [7] = target: T7, HeLa cell extract proteins (Homo sapiens, UniProt P31689); conditions: HeLa; protein DNAJA1
# T7 construct: endogenous in cells; host or cells: HeLa cell extract
# [8] = target: T8, HeLa cell extract proteins (Homo sapiens, UniProt P08238); conditions: HeLa; protein HSP90AB1 (HEAT SHOCK PROTEIN HSP 90-BETA.)
# T8 construct: endogenous in cells; host or cells: HeLa cell extract
# [9] = target: T9, HeLa cell extract proteins (Homo sapiens, UniProt P15121); conditions: protein AKR1B1; HeLa
# T9 construct: endogenous in cells; host or cells: HeLa cell extract
# [10] = target: T10, HeLa cell extract proteins (Homo sapiens, UniProt P16083); conditions: HeLa; protein NQO2
# T10 construct: endogenous in cells; host or cells: HeLa cell extract
# T10 sequence (P16083 1-231): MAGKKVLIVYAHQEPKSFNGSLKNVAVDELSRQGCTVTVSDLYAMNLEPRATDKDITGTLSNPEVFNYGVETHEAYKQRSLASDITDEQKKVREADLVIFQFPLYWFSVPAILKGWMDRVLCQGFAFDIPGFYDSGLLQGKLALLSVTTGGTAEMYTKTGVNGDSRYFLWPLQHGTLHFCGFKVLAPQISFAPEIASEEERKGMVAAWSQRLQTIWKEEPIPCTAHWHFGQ
# [11] = target: T11, HeLa cell extract proteins (Homo sapiens, UniProt P17987); conditions: protein TCP1; HeLa
# T11 construct: endogenous in cells; host or cells: HeLa cell extract
# [12] = target: T12, HeLa cell extract proteins (Homo sapiens, UniProt P68366); conditions: captured protein TUBA4A; HeLa
# T12 construct: endogenous in cells; host or cells: HeLa cell extract
# [13] = target: T13, HeLa cell extract proteins (Homo sapiens, UniProt P51659); conditions: protein HSD17B4; HeLa
# T13 construct: endogenous in cells; host or cells: HeLa cell extract
# T13 sequence (P51659 1-736): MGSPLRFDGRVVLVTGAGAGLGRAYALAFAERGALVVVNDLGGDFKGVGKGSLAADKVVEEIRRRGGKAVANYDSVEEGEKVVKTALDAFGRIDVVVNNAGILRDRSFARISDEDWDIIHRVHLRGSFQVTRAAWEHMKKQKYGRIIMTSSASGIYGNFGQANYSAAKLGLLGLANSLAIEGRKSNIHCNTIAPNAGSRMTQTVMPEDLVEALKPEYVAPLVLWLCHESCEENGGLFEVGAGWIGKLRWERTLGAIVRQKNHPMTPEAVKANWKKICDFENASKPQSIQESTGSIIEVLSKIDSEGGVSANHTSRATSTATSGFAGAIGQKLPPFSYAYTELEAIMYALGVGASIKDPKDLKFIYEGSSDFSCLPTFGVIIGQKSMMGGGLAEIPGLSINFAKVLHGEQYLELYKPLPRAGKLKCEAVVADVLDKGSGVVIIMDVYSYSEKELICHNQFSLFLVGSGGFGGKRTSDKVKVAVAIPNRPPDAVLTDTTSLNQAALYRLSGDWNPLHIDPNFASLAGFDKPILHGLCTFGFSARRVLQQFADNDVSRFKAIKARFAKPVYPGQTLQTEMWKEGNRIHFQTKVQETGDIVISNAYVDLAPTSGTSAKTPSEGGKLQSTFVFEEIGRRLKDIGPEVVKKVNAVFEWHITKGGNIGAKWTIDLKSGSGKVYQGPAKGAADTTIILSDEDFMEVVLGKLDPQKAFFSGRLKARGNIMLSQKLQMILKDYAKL
# [14] = target: T14, HeLa cell extract proteins (Homo sapiens, UniProt P09496); conditions: HeLa; protein CLTA
# T14 construct: endogenous in cells; host or cells: HeLa cell extract
# T14 sequence (P09496 1-248): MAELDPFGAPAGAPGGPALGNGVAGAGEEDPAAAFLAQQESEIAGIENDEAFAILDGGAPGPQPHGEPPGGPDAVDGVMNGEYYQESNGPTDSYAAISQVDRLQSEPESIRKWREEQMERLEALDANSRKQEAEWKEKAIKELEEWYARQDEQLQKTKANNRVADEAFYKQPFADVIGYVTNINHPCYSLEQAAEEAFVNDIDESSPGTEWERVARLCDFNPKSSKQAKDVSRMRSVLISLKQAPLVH
# T8 sequence (P08238 whole entry): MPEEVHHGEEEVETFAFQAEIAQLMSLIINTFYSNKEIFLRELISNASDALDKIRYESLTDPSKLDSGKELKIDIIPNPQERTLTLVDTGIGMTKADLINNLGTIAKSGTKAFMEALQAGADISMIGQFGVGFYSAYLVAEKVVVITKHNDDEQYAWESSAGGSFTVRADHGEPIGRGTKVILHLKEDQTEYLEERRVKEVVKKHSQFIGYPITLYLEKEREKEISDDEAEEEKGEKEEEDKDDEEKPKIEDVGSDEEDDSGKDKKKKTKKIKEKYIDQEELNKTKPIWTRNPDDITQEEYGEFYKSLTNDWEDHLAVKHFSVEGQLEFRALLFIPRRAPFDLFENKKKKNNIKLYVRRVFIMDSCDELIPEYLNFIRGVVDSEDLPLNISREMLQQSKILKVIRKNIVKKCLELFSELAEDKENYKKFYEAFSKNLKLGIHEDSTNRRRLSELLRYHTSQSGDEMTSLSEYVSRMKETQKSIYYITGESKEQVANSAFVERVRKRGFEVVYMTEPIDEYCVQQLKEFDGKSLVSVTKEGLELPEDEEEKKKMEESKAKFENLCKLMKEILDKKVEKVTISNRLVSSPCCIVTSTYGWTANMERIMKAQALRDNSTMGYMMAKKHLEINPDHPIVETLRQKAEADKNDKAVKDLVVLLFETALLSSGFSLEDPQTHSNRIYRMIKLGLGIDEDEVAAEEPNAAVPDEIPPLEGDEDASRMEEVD
# T11 sequence (P17987 whole entry): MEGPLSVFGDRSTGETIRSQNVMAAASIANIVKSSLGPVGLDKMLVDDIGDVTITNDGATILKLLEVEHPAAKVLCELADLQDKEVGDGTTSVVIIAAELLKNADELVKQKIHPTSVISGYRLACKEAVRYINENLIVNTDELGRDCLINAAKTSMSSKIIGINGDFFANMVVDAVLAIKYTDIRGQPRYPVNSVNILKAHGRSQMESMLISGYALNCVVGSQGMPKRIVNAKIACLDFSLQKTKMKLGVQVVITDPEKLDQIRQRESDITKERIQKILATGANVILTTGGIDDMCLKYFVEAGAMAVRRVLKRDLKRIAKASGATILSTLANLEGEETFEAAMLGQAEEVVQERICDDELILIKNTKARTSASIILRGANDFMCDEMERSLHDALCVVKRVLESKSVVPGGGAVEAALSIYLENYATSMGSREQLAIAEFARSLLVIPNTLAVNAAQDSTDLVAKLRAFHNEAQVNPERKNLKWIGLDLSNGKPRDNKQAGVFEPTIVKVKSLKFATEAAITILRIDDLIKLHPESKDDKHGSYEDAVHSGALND
# T1 sequence (P63208 whole entry): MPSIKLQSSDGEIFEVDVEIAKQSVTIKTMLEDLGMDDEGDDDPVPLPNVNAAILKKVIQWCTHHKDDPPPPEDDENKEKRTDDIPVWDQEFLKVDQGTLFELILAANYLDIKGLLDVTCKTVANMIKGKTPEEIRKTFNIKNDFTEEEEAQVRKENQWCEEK
# T12 sequence (P68366 whole entry): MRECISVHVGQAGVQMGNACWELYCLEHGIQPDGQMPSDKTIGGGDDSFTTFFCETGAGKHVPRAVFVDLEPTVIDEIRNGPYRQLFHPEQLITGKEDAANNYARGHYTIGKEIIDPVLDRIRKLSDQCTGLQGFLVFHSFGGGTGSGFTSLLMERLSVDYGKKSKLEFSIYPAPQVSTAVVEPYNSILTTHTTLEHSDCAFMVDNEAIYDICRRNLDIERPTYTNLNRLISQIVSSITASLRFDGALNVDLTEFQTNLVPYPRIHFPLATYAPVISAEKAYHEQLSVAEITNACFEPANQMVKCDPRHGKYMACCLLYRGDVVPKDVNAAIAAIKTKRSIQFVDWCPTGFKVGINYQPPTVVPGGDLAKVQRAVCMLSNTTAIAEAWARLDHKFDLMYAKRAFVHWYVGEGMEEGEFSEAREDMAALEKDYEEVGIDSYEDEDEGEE
# T6 sequence (Q7Z3U7 whole entry): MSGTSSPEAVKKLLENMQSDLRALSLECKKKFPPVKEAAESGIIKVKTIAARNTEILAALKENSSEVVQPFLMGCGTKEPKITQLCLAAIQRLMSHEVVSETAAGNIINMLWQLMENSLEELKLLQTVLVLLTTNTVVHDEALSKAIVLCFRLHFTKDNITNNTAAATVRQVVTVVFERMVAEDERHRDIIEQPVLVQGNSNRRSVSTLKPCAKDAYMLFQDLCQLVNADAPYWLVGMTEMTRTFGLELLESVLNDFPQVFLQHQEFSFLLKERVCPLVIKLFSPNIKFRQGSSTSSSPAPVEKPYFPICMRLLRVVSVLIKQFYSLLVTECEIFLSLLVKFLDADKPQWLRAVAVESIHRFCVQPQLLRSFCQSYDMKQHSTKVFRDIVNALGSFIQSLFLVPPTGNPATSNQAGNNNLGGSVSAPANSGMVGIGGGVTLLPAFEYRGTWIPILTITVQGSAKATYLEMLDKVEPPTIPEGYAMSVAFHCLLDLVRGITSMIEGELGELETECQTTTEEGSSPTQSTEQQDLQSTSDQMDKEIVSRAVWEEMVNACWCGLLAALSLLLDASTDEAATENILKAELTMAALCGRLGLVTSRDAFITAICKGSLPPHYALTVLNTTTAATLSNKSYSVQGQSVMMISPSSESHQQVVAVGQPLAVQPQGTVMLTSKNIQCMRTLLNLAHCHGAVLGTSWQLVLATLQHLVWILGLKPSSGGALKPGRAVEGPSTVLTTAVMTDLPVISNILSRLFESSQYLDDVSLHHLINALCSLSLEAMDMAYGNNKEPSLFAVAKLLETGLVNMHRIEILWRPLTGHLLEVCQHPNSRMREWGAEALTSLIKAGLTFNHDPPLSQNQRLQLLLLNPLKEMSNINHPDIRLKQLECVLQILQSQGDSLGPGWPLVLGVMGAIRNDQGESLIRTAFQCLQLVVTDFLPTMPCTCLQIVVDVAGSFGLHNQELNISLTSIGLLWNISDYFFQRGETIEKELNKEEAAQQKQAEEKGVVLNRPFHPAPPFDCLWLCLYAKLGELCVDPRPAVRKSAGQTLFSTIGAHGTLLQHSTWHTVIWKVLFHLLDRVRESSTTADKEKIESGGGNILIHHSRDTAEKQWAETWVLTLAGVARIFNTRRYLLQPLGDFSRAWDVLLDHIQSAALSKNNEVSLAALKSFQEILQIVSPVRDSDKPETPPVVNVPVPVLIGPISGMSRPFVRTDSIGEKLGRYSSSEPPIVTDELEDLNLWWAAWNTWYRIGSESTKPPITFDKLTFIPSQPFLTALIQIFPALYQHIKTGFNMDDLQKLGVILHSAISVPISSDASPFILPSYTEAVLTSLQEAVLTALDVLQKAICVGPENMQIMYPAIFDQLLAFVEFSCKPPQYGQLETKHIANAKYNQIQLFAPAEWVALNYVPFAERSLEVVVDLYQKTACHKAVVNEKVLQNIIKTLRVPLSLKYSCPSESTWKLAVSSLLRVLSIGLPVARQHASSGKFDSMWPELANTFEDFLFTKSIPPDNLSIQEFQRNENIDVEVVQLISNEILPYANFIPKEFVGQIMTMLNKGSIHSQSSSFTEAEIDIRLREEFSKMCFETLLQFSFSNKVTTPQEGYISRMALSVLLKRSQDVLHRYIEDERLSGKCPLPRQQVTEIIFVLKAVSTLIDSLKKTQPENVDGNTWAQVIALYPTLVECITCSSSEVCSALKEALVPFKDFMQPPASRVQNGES
# T7 sequence (P31689 whole entry): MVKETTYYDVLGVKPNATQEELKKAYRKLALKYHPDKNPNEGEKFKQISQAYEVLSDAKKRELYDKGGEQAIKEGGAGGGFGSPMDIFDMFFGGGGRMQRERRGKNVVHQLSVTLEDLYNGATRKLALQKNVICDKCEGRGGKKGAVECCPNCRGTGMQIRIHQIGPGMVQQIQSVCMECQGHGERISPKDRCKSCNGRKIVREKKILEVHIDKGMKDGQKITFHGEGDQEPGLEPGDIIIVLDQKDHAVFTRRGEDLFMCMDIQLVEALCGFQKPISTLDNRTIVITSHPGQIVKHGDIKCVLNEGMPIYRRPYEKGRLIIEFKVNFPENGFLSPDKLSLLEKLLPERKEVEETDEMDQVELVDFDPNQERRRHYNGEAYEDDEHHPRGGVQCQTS
smiles,measurement,setting,value
Nc1nc2cccc(-c3ccccc3)c2n1Cc1ccc(Cl)c(Cl)c1 [compound 3],fold changes relative to vehicle control,[1],0.87
same,fold changes relative to vehicle control,[2],1.03
same,fold changes relative to vehicle control,[3],0.93
same,fold changes relative to vehicle control,[4],0.95
same,fold changes relative to vehicle control,[5],1.11
same,fold changes relative to vehicle control,[6],1.18
same,fold changes relative to vehicle control,[7],0.92
same,fold changes relative to vehicle control,[8],1.06 fold
same,fold changes relative to vehicle control,[9],0.8
same,fold changes relative to vehicle control,[10],0.99
same,fold changes relative to vehicle control,[11],1.09
same,fold changes relative to vehicle control,[12],1.01
same,fold changes relative to vehicle control,[13],1.14
same,fold changes relative to vehicle control,[14],1.09
